# System: menopausal women
# Test: Placebo-controlled study: severity of moderate to severe hot flushes
# Format: in vivo, human (women)
# Set-up: key to Severity of Moderate to Severe Hot Flushes, Mean Change from Baseline / Severity of Moderate to Severe Hot Flushes, Mean: 0 none, 1 mild, 2 moderate, 3 severe hot flush intensity
# Conditions: for Severity of Moderate to Severe Hot Flushes, Mean: Baseline
# Experimental: This study was a multi-centred, double-blind, placebo-controlled, parallel group comparison. A total of 351 subjects were enrolled at 78 sites in the United States.
# A two-week, medication free, Pre-Treatment Phase was used to determine subject vasomotor symptoms. Efficacy assessments included the number and intensity of hot flushes per day, and severity of vulvar and vaginal atrophy symptoms.
# The three treatment groups comprised the following dosages: • A 0.375 mg dose (1.25 g of gel @ 0.03%) applied to one arm and 0.9 g of placebo gel applied on the other arm once daily for 12 weeks; • A 0.27 mg dose (0.9 g of gel @ 0.03%) applied to one arm and 1.25 g of placebo gel applied on the other arm once daily for 12 weeks; and • 0.9 g of placebo gel applied to one arm and 1.25 g of placebo gel applied on the other arm once daily for 12 weeks.
# The Treatment Phase was 12 weeks. A pre-treatment period of 2 weeks was used to initially evaluate each subject's vasomotor symptoms.
# All data were analyzed using the approach of Observed Cases (OC).
# For all continuous primary and secondary efficacy parameters, descriptive statistics tables and 2-way ANCOVA with fixed factors treatment and centre, and baseline value as covariate were provided. The interaction of treatment and centre was investigated using 2-way ANCOVA with fixed factors treatment, centre, and treatment-by-centre interaction with baseline value as covariate. To control the Type-I error rate, a step-down procedure using contrasts was performed to compare each treatment group to the placebo group. First, the group with the 0.375 mg dose was compared against placebo at the α=0.05 level (2-sided). If the null hypothesis was rejected, the group with the 0.27 mg dose was compared to placebo at the α=0.05 level (2-sided). Graphs were used to characterize the dose response. If the assumptions of the model were not met, then van Elteren's test with centre as the stratification variable was used in the step-down procedure. For categorical data, Fisher's exact test was used to compare treatment groups.
# The study assessed the following variables: • Mean change in frequency of moderate to severe vasomotor symptoms from baseline to Week 4; • Mean change in frequency of moderate to severe vasomotor symptoms from baseline to Week 12; • Mean change in severity of moderate to severe vasomotor symptoms from baseline to Week 4; • Mean change in severity of moderate to severe vasomotor symptoms from baseline to Week 12; • Mean change in frequency of moderate-to-severe hot flushes at each week; • Mean change in severity of moderate-to-severe hot flushes at each week; • Mean change from baseline to Week 12 in the moderate to severe symptom of vulvar and vaginal atrophy that has been identified by the subject as being the most bothersome to her (vaginal pain, dryness, irritation/itching, bleeding, dysuria);
# Severity of moderate to severe vasomotor symptoms was defined as (2*number of moderate hot flushes+3*number of severe hot flushes)/total number of moderate and severe hot flushes.
# As with frequency, if less than 10 days of data were available for the baseline period, the baseline severity was considered missing.
# On a daily basis, the subject recorded the number of hot flushes and rated the intensity of each based on a four-point scale as follows: • 0 (none) • 1 (mild) Sensation of heat without perspiration • 2 (moderate) Sensation of heat with perspiration, but the subject was able to continue with their activity • 3 (severe) Sensation of heat with sweating, sufficiently severe to result in discontinuation of activity Assessment of Vulvar and Vaginal Atrophy Symptom Severity
smiles,measurement,setting,value
"C[C@]12CC[C@@H]3c4ccc(O)cc4CC[C@H]3[C@@H]1CC[C@@H]2O [estradiol, 17-beta estradiol]","Week at which statistical significance vs placebo was achieved, severity of moderate to severe hot flushes",0.27 mg dose,8 Week
same,"Severity of Moderate to Severe Hot Flushes, Mean",0.27 mg dose,2.52
same,"Severity of Moderate to Severe Hot Flushes, Mean Change from Baseline","0.27 mg dose, Week 1",−0.02
same,"Severity of Moderate to Severe Hot Flushes, Mean Change from Baseline","0.27 mg dose, Week 2",−0.10
same,"Severity of Moderate to Severe Hot Flushes, Mean Change from Baseline","0.27 mg dose, Week 3",−0.21
same,"Severity of Moderate to Severe Hot Flushes, Mean Change from Baseline","0.27 mg dose, Week 4",−0.26
same,"Severity of Moderate to Severe Hot Flushes, Mean Change from Baseline","0.27 mg dose, Week 5",−0.29
same,"Severity of Moderate to Severe Hot Flushes, Mean Change from Baseline","0.27 mg dose, Week 6",−0.36
same,"Severity of Moderate to Severe Hot Flushes, Mean Change from Baseline","0.27 mg dose, Week 7",−0.40
same,"Severity of Moderate to Severe Hot Flushes, Mean Change from Baseline","0.27 mg dose, Week 8",−0.46
same,"Severity of Moderate to Severe Hot Flushes, Mean Change from Baseline","0.27 mg dose, Week 9",−0.60
same,"Severity of Moderate to Severe Hot Flushes, Mean Change from Baseline","0.27 mg dose, Week 10",−0.58
same,"Severity of Moderate to Severe Hot Flushes, Mean Change from Baseline","0.27 mg dose, Week 11",−0.66
same,"Severity of Moderate to Severe Hot Flushes, Mean Change from Baseline","0.27 mg dose, Week 12",−0.70
same,"Week at which statistical significance vs placebo was achieved, severity of moderate to severe hot flushes",0.375 mg dose,4 Week
same,"Severity of Moderate to Severe Hot Flushes, Mean",0.375 mg dose,2.52
same,"Severity of Moderate to Severe Hot Flushes, Mean Change from Baseline","0.375 mg dose, Week 1",0.00
same,"Severity of Moderate to Severe Hot Flushes, Mean Change from Baseline","0.375 mg dose, Week 2",−0.10
same,"Severity of Moderate to Severe Hot Flushes, Mean Change from Baseline","0.375 mg dose, Week 3",−0.19
same,"Severity of Moderate to Severe Hot Flushes, Mean Change from Baseline","0.375 mg dose, Week 4",−0.31
same,"Severity of Moderate to Severe Hot Flushes, Mean Change from Baseline","0.375 mg dose, Week 5",−0.35
same,"Severity of Moderate to Severe Hot Flushes, Mean Change from Baseline","0.375 mg dose, Week 6",−0.49
same,"Severity of Moderate to Severe Hot Flushes, Mean Change from Baseline","0.375 mg dose, Week 7",−0.67
same,"Severity of Moderate to Severe Hot Flushes, Mean Change from Baseline","0.375 mg dose, Week 8",−0.59
same,"Severity of Moderate to Severe Hot Flushes, Mean Change from Baseline","0.375 mg dose, Week 9",−0.77
same,"Severity of Moderate to Severe Hot Flushes, Mean Change from Baseline","0.375 mg dose, Week 10",−0.76
same,"Severity of Moderate to Severe Hot Flushes, Mean Change from Baseline","0.375 mg dose, Week 11",−0.89
same,"Severity of Moderate to Severe Hot Flushes, Mean Change from Baseline","0.375 mg dose, Week 12",−0.90

# — patent US8431557B2, “Treatment of menopause-associated symptoms” (Besins Healthcare Luxembourg SARL, priority 2006, dated 2013)
